The record followed here is US8193364B2, “Insecticidal N-substituted (6-haloalkylpyridin-3-yl)-alkyl sulfoximines” (Dow AgroSciences, LLC., priority 2006, dated 2012).

Where two headings read alike, the source gives them in different places.

What all share (assay type): in vivo
For experiment [1], the system named is Green Peach Aphid (Myzus persicae). Put plainly: Green peach aphid foliar spray assay on cabbage. As to conditions: 72 h, read-out: % Control at ppm, foliar spray, green peach aphid on cabbage. The procedure: Cabbage seedlings grown in 3-inch pots, with 2-3 small (3-5 cm) true leaves, were used as test substrate. The seedlings were infested with 20-50 green peach aphids (wingless adult and nymph) 2-3 days prior to chemical application. Four seedlings were used for each treatment. Compounds (2 mg) were dissolved in 2 ml of acetone:methanol (1:1) solvent, forming stock solutions of 1000 ppm. The stock solutions were then diluted with a diluent consisting 80 parts of 0.025% Tween 20 in […] and 20 parts of acetone:methanol (1:1). A hand-held Devilbiss sprayer was used for spraying the test solutions to both sides of cabbage leaves until runoff. Reference plants (solvent check) were sprayed with the diluent only. Treated plants were held in a holding room for three days at approximately 23° C. and 40% RH prior to grading. Evaluation was conducted by counting the number of live aphids per plant under a microscope. Insecticidal activity was measured by using Abbott's correction formula: Corrected % Control=100*(X−Y)/X • where X=No. of live aphids on solvent check plants • Y=No. of live aphids on treated plants The Corrected % Control values from assays are given in Table 2.

For experiment [2], the system named is Cotton Aphid (Aphis gossypii). The experiment can be described thus: Cotton aphid foliar spray assay on squash. As to conditions: 72 h, read-out: % Control of cotton aphid on squash (foliar spray). The procedure:
Squash with fully expanded cotyledon leaves were trimmed to one cotyledon per plant and infested with cotton aphid (wingless adult and nymph) 1 day prior to chemical application. Each plant was examined before chemical application to ensure proper infestation (ca. 30-70 aphids per plant). Compounds (2 mg) were dissolved in 2 ml of acetone:methanol (1:1) solvent, forming stock solutions of 1000 ppm. The stock solutions were then diluted with a diluent consisting 80 parts of 0.025% Tween 20 in H2O and 20 parts of acetone:methanol (1:1). A hand-held Devilbiss sprayer was used to apply the test solutions until runoff to both sides of the squash cotyledon leaves. Four plants (4 replications) were used for each concentration of each compound. Reference plants (solvent check) were sprayed with the diluent only. Treated plants were held in a holding room for 3 days at approximately 23° C. and 40% RH before the number of live aphids on each plant was recorded. Insecticidal activity was measured by Corrected % Control using Abbott's correction formula and presented in Table 1: Corrected % Control=100*(X−Y)/X • where X=No. of live aphids on solvent check plants • Y=No. of live aphids on treated plants

Experiment [3] relates to Green Leafhopper (Nephotettix sp.). The experiment can be described thus: Green leafhopper foliar spray assay on rice. The procedure:
(§1) A foliar spray assay and a root-uptake systemic assay were performed on both brown planthopper and green leafhopper. Four-week-old rice seedlings were submerged in 3-cm depth of water in the bottom portion (high 5 cm, diameter 3 cm) of a 2-part glass cylinder (high 18 cm, diameter 3 cm). A metal screen was used to hold the seedlings within the bottom portion. Scotch tape was used to bind the two portions of the cylinder after setting up the seedlings. A metal cap was used to cover the cylinder. There were 4 cylinders for each treatment. The test compound was dissolved in acetone to make a 10,000 ppm stock solution. For the foliar spray assay, this stock solution was diluted with water to make 10, 2.5, 0.31, 0.08 and 0.02 ppm test solutions. A volume of 0.5 ml of a test solution or solvent blank as check was sprayed into the glass cylinder. For systemic test, the stock solution was incorporated at final test concentrations of 10, 2.5, 0.31, 0.08 and 0.02 ppm in the water in which rice seedlings were submerged. In both foliar spray and systemic tests, five laboratory-reared 3rd instar nymphs of brown planthopper or green leafhopper were introduced into each cylinder 3 hr after insecticide application. The treated test units were kept in a growth chamber with conditions set as followings: Temperature 28±0.5° C.; Relative humidity 70±0.5%; Photoperiod […].

Experiment [4] shares this test system. Put plainly: Green leafhopper root-uptake systemic assay on rice. On the procedure:
as §1

Experiment [5] relates to Brown Planthopper (Nilaparvata lugens). Put plainly: Brown planthopper foliar spray assay on rice. On the procedure:
as §1

For experiment [6] the test system is unchanged. The experiment can be described thus: Brown planthopper root-uptake systemic assay on rice. On the procedure:
as §1

For `CS(=O)(Cc1ccc(C(F)(F)F)nc1)=NC#N` (centres unmarked) [Compound 1, [(6-trifluoromethylpyridin-3-yl)methyl](methyl)-oxido-λ^4-sulfanylidenecyanamide], the pest or weed control at 0.781 ppm was under 50% in experiment [1] (0.781 ppm, 3 days after spray) and 90 to 100% in experiment [2] (0.781 ppm, 3 days after spray). Besides, in experiment [1] (3.125 ppm, 3 days after spray), the pest or weed control at 3.125 ppm is 90 to 100%. For the same molecule, in experiment [2] (0.049 ppm, 3 days after spray), the pest or weed control at 0.049 ppm lay within 90 to 100%. The pest or weed control at 0.195 ppm in experiment [2] (0.195 ppm, 3 days after spray) lay in the range of 90 to 100%. Also, the pest or weed control at 3.13 ppm in experiment [2] (3.13 ppm, 3 days after spray) lay within 90 to 100%.

Regarding `CC(c1ccc(C(F)(F)C(F)(F)F)nc1)S(C)(=O)=NC#N` (centres unmarked) [Compound 9, [1-(6-pentafluoroethylpyridin-3-yl)ethyl](methyl)-oxido-λ^4-sulfanylidenecyanamide], in experiment [2] (0.781 ppm, 3 days after spray), the pest or weed control at 0.781 ppm lay within 50 to 59%. In experiment [2] (3.13 ppm, 3 days after spray), the pest or weed control at 3.13 ppm is 90 to 100%.

Turning to `N#CN=S1(=O)CCCC1Cc1ccc(C(F)(F)F)nc1` (centres unmarked) [Compound 10, 2-[(6-trifluoromethylpyridin-3-yl)methyl]-1-oxidotetrahydro-1H-1λ^4-thien-1-ylidenecyanamide], in experiment [2], the pest or weed control at 0.781 ppm is 60 to 69% and the pest or weed control at 3.13 ppm was in the range of 70 to 79%.

`CC(c1ccc(C(F)(F)Cl)nc1)S(C)(=O)=NC#N` (centres unmarked) [Compound 4, (1-{6-[chloro(difluoro)methyl]pyridin-3-yl}ethyl)(methyl)-oxido-λ^4-sulfanylidenecyanamide]: the pest or weed control at 0.195 ppm lay in the range of 80 to 89% in experiment [1] and 90 to 100% in experiment [2]. Also, the pest or weed control at 0.781 ppm in experiment [1] and in experiment [2] was 90 to 100% in each case. Also, in experiment [1], the pest or weed control at 3.125 ppm is 90 to 100%. In addition, the “% Control at ppm against green leafhopper” value is listed as “E (50-59)” in experiment [3] (0.02 ppm); “B (80-89)” in experiment [3] (0.08 ppm); “A (90-100)” in experiment [3] (0.31 ppm); “A (90-100)” in experiment [3] (2.5 ppm); “A (90-100)” in experiment [3] (10 ppm); “E (50-59)” in experiment [4] (0.02 ppm in water). The “% Control at ppm against green leafhopper” value is “C (70-79)” in experiment [4] (0.08 ppm in water), “A (90-100)” in experiment [4] (0.31 ppm in water), “A (90-100)” in experiment [4] (2.5 ppm in water) and “A (90-100)” in experiment [4] (10 ppm in water). The pest or weed control at 0.049 ppm in experiment [2] fell in the range of 90 to 100%. Moreover, the pest or weed control at 3.13 ppm in experiment [2] lay within 90 to 100%. For the same molecule, the “% Control at ppm against brown planthopper” value in experiment [5] (0.02 ppm) is given as “F (Less than 50)”; in experiment [5] (0.08 ppm) it was “E (50-59)”; in experiment [5] (0.31 ppm), “B (80-89)”; in experiment [5] (2.5 ppm), “A (90-100)”; in experiment [5] (10 ppm) it was “A (90-100)”; in experiment [6] (0.02 ppm in water) it was “F (Less than 50)”. Also, the “% Control at ppm against brown planthopper” value in experiment [6] (0.08 ppm in water) is “E (50-59)”; in experiment [6] (0.31 ppm in water), “A (90-100)”; in experiment [6] (2.5 ppm in water), “A (90-100)”; in experiment [6] (10 ppm in water), “A (90-100)”.

For `CC(c1ccc(C(Cl)(Cl)Cl)nc1)S(C)(=O)=NC#N` (centres unmarked) [Compound 5, [1-(6-trichloromethylpyridin-3-yl)ethyl](methyl)-oxido-λ^4-sulfanylidenecyanamide], in experiment [1], the pest or weed control at 0.781 ppm was under 50% and the pest or weed control at 3.125 ppm fell in the range of 80 to 89%. Moreover, in experiment [2], the pest or weed control at 0.049 ppm is 50 to 59%, the pest or weed control at 0.195 ppm fell in the range of 80 to 89%, the pest or weed control at 0.781 ppm was 90 to 100% and the pest or weed control at 3.13 ppm lay in the range of 90 to 100%.

For the molecule `CC(c1ccc(C(C)(F)F)nc1)S(C)(=O)=NC#N` (centres unmarked) [Compound 12], the pest or weed control at 0.781 ppm lay within 50 to 59% in experiment [1] (0.781 ppm, 3 days after spray) and 90 to 100% in experiment [2] (0.781 ppm, 3 days after spray). Moreover, the pest or weed control at 3.125 ppm in experiment [1] (3.125 ppm, 3 days after spray) was in the range of 80 to 89%. The pest or weed control at 3.13 ppm in experiment [2] (3.13 ppm, 3 days after spray) lay in the range of 90 to 100%.

Take `N#CN=S1(=O)CCCC1c1ccc(C(F)(F)F)nc1` (centres unmarked) [Compound 3, 2-(6-trifluoromethylpyridin-3-yl)-1-oxidotetrahydro-1H-1λ^4-thien-1-ylidenecyanamide]: the pest or weed control at 0.195 ppm is under 50% in experiment [1] (0.195 ppm, 3 days after spray) and 90 to 100% in experiment [2] (0.195 ppm, 3 days after spray). In addition, the pest or weed control at 0.781 ppm was under 50% in experiment [1] (0.781 ppm, 3 days after spray) and 90 to 100% in experiment [2] (0.781 ppm, 3 days after spray). Also, the pest or weed control at 3.125 ppm in experiment [1] (3.125 ppm, 3 days after spray) was 60 to 69%. Further, the pest or weed control at 0.049 ppm in experiment [2] (0.049 ppm, 3 days after spray) was in the range of 90 to 100%. Also, in experiment [2] (3.13 ppm, 3 days after spray), the pest or weed control at 3.13 ppm lay in the range of 90 to 100%.

As to `CC(c1ccc(C(F)F)nc1)S(C)(=O)=NC#N` (centres unmarked) [Compound 8, [1-(6-difluoromethylpyridin-3-yl)ethyl](methyl)-oxido-λ^4-sulfanylidenecyanamide], the pest or weed control at 0.195 ppm was under 50% in experiment [1] (0.195 ppm, 3 days after spray) and 90 to 100% in experiment [2] (0.195 ppm, 3 days after spray). Besides, the pest or weed control at 0.781 ppm in experiment [1] (0.781 ppm, 3 days after spray) was under 50%; in experiment [2] (0.781 ppm, 3 days after spray) it was 90 to 100%. Besides, the pest or weed control at 3.125 ppm in experiment [1] (3.125 ppm, 3 days after spray) was under 50%. The pest or weed control at 0.049 ppm in experiment [2] (0.049 ppm, 3 days after spray) lay in the range of 70 to 79%. Besides, the pest or weed control at 3.13 ppm in experiment [2] (3.13 ppm, 3 days after spray) was in the range of 90 to 100%.

Take `CC(c1ccc(C(F)(F)F)nc1)S(C)(=O)=N[N+](=O)[O-]` (centres unmarked) [Compound 11, 2-trifluoromethyl-5-(1-{methyl(oxido)[oxido(oxo)hydrazono]-λ^4-sulfanyl}ethyl)pyridine]: the pest or weed control at 0.195 ppm in experiment [1] (0.195 ppm, 3 days after spray) lay in the range of 70 to 79%; in experiment [2] (0.195 ppm, 3 days after spray), 60 to 69%. Further, the pest or weed control at 0.781 ppm in experiment [1] (0.781 ppm, 3 days after spray) lay within 80 to 89%; in experiment [2] (0.781 ppm, 3 days after spray) it was 90 to 100%. In addition, the pest or weed control at 3.125 ppm in experiment [1] (3.125 ppm, 3 days after spray) fell in the range of 90 to 100%. Further, the pest or weed control at 0.049 ppm in experiment [2] (0.049 ppm, 3 days after spray) lay within 60 to 69%. Besides, the pest or weed control at 3.13 ppm in experiment [2] (3.13 ppm, 3 days after spray) is 90 to 100%.

With `CS(=O)(Cc1ccc(C(F)F)nc1)=NC#N` (centres unmarked) [Compound 7, [(6-difluoromethylpyridin-3-yl)methyl](methyl)-oxido-λ^4-sulfanylidenecyanamide], in experiment [2] (0.049 ppm, 3 days after spray), the pest or weed control at 0.049 ppm is under 50%. For the same molecule, the pest or weed control at 0.195 ppm in experiment [2] (0.195 ppm, 3 days after spray) was in the range of 80 to 89%. Further, the pest or weed control at 0.781 ppm in experiment [2] (0.781 ppm, 3 days after spray) lay in the range of 90 to 100%. Also, in experiment [2] (3.13 ppm, 3 days after spray), the pest or weed control at 3.13 ppm lay in the range of 90 to 100%.

Turning to `CS(=O)(CCc1ccc(C(F)(F)F)nc1)=NC#N` (centres unmarked) [Compound 6, [2-(6-trifluoromethylpyridin-3-yl)ethyl](methyl)-oxido-λ^4-sulfanylidenecyanamide], the pest or weed control at 0.781 ppm in experiment [2] (0.781 ppm, 3 days after spray) fell in the range of 80 to 89%. The pest or weed control at 3.13 ppm in experiment [2] (3.13 ppm, 3 days after spray) was 80 to 89%.
